# ChEMBL document CHEMBL1201862, “PubChem BioAssay data set” (2004)
#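 Assay format: 96-well plates, 48-hour exposure. The concentration for 50% growth inhibition is given as GI50.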 Activity calls are given as the source filed them. Rule as the data show it: active = GI50 up to about 1.1 µM and inactive = higher.
# How the values were obtained:
# Test in all cases: NCI tumour cell line growth inhibition, 48 h
# [1] = system: A549
# [2] = system: DMS-114
# [3] = system: HOP-62
# [4] = system: K562
# [5] = system: OVCAR-3
# [6] = system: OVCAR-4
# [7] = system: OVCAR-5
# [8] = system: OVCAR-8
# [9] = system: RPMI-8226
# [10] = system: RXF 393
# [11] = system: SNB-19
# [12] = system: SNB-78
# [13] = system: TK-10
# [14] = system: 786-0
# [15] = system: A498
# [16] = system: ACHN
# [17] = system: BT-549
# [18] = system: CAKI-1
# [19] = system: CCRF-CEM
# [20] = system: COLO 205
# [21] = system: DU-145
# [22] = system: EKVX
# [23] = system: HCC 2998
# [24] = system: HCT-116
# [25] = system: HCT-15
# [26] = system: HL-60
# [27] = system: HOP-92
# [28] = system: HT-29
# [29] = system: Hs-578T
# [30] = system: IGROV-1
# [31] = system: KM12
# [32] = system: LOX IMVI
# [33] = system: M14
# [34] = system: MCF7
# [35] = system: MDA-MB-231
# [36] = system: MDA-MB-435
# [37] = system: MDA-N
# [38] = system: MOLT-4
# [39] = system: Malme-3M
# [40] = system: NCI-H226
# [41] = system: NCI-H23
# [42] = system: NCI-H460
# [43] = system: NCI-H522
# [44] = system: NCI/ADR-RES
# [45] = system: PC-3
# [46] = system: SF-268
# [47] = system: SF-295
# [48] = system: SF-539
# [49] = system: SK-MEL-28
# [50] = system: SK-MEL-2
# [51] = system: SK-MEL-5
# [52] = system: SK-OV-3
# [53] = system: SN12C
# [54] = system: SNB-75
# [55] = system: SR
# [56] = system: SW-620
# [57] = system: T47D
# [58] = system: U-251
# [59] = system: UACC-257
# [60] = system: UACC-62
# [61] = system: UO-31
smiles,measurement,setting,value
COc1cc(C)cc2c1[nH]c1ccccc12 [MURRAYAFOLINE A],GI50,[1],11.5 µM (inactive)
same,GI50,[2],9.64 µM (inactive)
same,GI50,[3],6.53 µM (inactive)
same,GI50,[4],> 25 µM (inactive)
same,GI50,[5],8.91 µM (inactive)
same,GI50,[6],> 25 µM (inactive)
same,GI50,[7],24.5 µM (inactive)
same,GI50,[8],7.33 µM (inactive)
same,GI50,[9],8.65 µM (inactive)
same,GI50,[10],9.16 µM (inactive)
same,GI50,[11],> 25 µM (inactive)
same,GI50,[12],> 25 µM (inactive)
same,GI50,[13],> 25 µM (inactive)
COc1ccc(C2OC(=O)c3ccc4ccccc4c32)c(C)c1 (configuration not stated),GI50,[14],12.7 µM (inactive)
same,GI50,[15],7.41 µM (inactive)
same,GI50,[1],6.31 µM (inactive)
same,GI50,[16],20.6 µM (inactive)
same,GI50,[17],19.5 µM (inactive)
same,GI50,[18],13.3 µM (inactive)
same,GI50,[19],22.4 µM (inactive)
same,GI50,[20],4.36 µM (inactive)
same,GI50,[21],22.2 µM (inactive)
same,GI50,[22],18.8 µM (inactive)
same,GI50,[23],3.85 µM (inactive)
same,GI50,[24],4.93 µM (inactive)
same,GI50,[25],4.1 µM
same,GI50,[26],3.69 µM (inactive)
same,GI50,[3],7.26 µM (inactive)
same,GI50,[27],10.9 µM (inactive)
same,GI50,[28],3.78 µM (inactive)
same,GI50,[29],10.2 µM (inactive)
same,GI50,[30],5.51 µM (inactive)
same,GI50,[4],3.55 µM (inactive)
same,GI50,[31],5.87 µM (inactive)
same,GI50,[32],7.89 µM (inactive)
same,GI50,[33],6.73 µM (inactive)
same,GI50,[34],5.65 µM (inactive)
same,GI50,[35],6.12 µM (inactive)
same,GI50,[36],2.36 µM (inactive)
same,GI50,[37],2 µM (inactive)
same,GI50,[38],7.73 µM (inactive)
same,GI50,[39],8.18 µM (inactive)
same,GI50,[40],13.9 µM (inactive)
same,GI50,[41],9.53 µM (inactive)
same,GI50,[42],4.18 µM (inactive)
same,GI50,[43],4.42 µM (inactive)
same,GI50,[44],2.37 µM (inactive)
same,GI50,[5],6.44 µM (inactive)
same,GI50,[6],19.6 µM (inactive)
same,GI50,[7],19.9 µM (inactive)
same,GI50,[8],14.2 µM (inactive)
same,GI50,[45],9.08 µM (inactive)
same,GI50,[9],11.1 µM (inactive)
same,GI50,[10],5.33 µM (inactive)
same,GI50,[46],45.2 µM (inactive)
same,GI50,[47],2.98 µM (inactive)
same,GI50,[48],12.2 µM (inactive)
same,GI50,[49],11.9 µM (inactive)
same,GI50,[50],2.1 µM (inactive)
same,GI50,[51],3.54 µM (inactive)
same,GI50,[52],7.82 µM (inactive)
same,GI50,[53],10.1 µM (inactive)
same,GI50,[11],14.7 µM (inactive)
same,GI50,[54],6.97 µM (inactive)
same,GI50,[55],3.86 µM (inactive)
same,GI50,[56],3.96 µM (inactive)
same,GI50,[57],7.6 µM (inactive)
same,GI50,[13],15.2 µM (inactive)
same,GI50,[58],4.86 µM (inactive)
same,GI50,[59],27.5 µM (inactive)
same,GI50,[60],6.93 µM (inactive)
same,GI50,[61],8.97 µM (inactive)
